From US20190060249A1 (priority 2017, published 2019)

Legend:
Human salivary cells = test: Salisphere formation assay, human; type: cell-based; details: 25 μM Alda-341; cells from normal salivary gland tissue of head and neck cancer patients
Method: (§1) Salisphere formation assay: Cells isolated from mouse submandibular glands (SMG) were FACS sorted using cell surface markers EpCAM and CD24 as previously described and seeded on matrigel (BD Biosciences, BD356235). Cells were grown in DMEM/F12+GlutaMax (Gibco, 10565-018) media containing 10% FBS, 1× anti-anti, 1% N2 supplement (Gibco), 20 ng/mL […] (Sigma-Aldrich), 20 ng/mL fibroblast growth factor-2 (Sigma-Aldrich), 10 μg/mL insulin (Sigma-Aldrich), 1 μM dexamethasone (Sigma-Aldrich), 10 μM […] (Stem Cell Technologies). Spheres were passaged every 7 days by dissociating into single cells by incubating in 1 mg/mL dispase (BD Biosciences) for 20 minutes and 0.25% trypsin-EDTA for 20 minutes. Spheres were grown for 7 days and imaged with a BZ-X710 Keyence microscope using the z-stack function. Images were stitched together into a single image and analyzed using ImageJ (NIH) to quantify sphere number and area. Experiments were repeated at least 3 independent times.
Sphere number per well quantified by Image J (NIH). 4 replicates per group.
Salivary gland tissue dissociation: Mouse and human salivary gland cells were isolated as previously described in, Szlavik, V., Szabo, B., Vicsek, T., Barabas, J., Bogdan, S., Gresz, V., Varga, G., O'Connell, B., and Vag, J. (2008) Differentiation of primary human submandibular gland cells cultured on basement membrane extract. […]

[1] = test system: mouse WT EpCAM+/CD24+-sorted cells; test: Salisphere formation assay, mouse; type: cell-based; details: 25 μM Alda-341 over 7 days
Method: as §1
Sphere number per well quantified by Image J (NIH). 6 replicates per group.

[2] = test system: murine WT EpCAM+/CD24+-sorted cells; test: Annexin V assay; type: cell-based, mouse; details: 100 μM Alda-341; Annexin V and propidium iodide, FACS
Method: Annexin V^+PI^+ are interpreted as late apoptotic cells and appear in the upper right quadrant. 5-6 replicates per group.
Cells were dissociated from matrigel, stained with Biolegend's FITC Annexin V Apoptosis Detection Kit with Propidium Iodide ([…]), and analyzed by flow cytometry. Annexin V^+PI^− cells were analyzed as early apoptotic cells and Annexin V^+PI^+ cells were analyzed as late apoptotic cells. Five to six replicates per group were assayed.

[3] = test system: mouse primary salivary sphere lysate; test: ALDH fluorescence-coupled enzymatic assay in salivary sphere lysate; type: biochemical; details: 10 mM acetaldehyde, 100 μM Alda-341
Method: Assay conditions were modified from the original enzyme assay protocol above using 50 mM NaPPi buffer (pH 7.4), 2.5 mM NAD^+, 10 mM acetaldehyde or all-trans-retinal substrate with the addition of 1 U/mL diaphorase and 0.1 mM resazurin for the secondary reaction. Measurements were collected in triplicate at 25° C.
All measurements were collected in triplicate, and error bars represent SEM. *=p<0.05; ***=p<0.001 (Student's t-test).

[4] = test system: SAS (human papillomavirus [HPV]-negative) head and neck squamous cell carcinoma cell line; test: Xenograft study, SAS; type: in vivo, SCID mice; details: Alda-341 from one week ahead of irradiation, during and post; 30 Gy over 5 fractions
Method: Xenograft study: Six-week old SCID mice were purchased from the Jackson laboratory and five mice per group were used. SCC90 and SAS cells (2×10^6 cells/injection) were implanted into both flanks of each mouse. Alda-341 treated one week ahead of irradiation and continued during and post radiation. Total 30 Gy over 5 fractions in a week was delivered to the tumor with the rest of the body shielded. Tumor size was measured every 1-2 days. Tumor volume was calculated by the formula (π×length×width×height)/6.

ALDH5A1 = biological target: T1, ALDH5A1 (Homo sapiens, UniProt P51649); test: ALDH enzymatic assay, recombinant ALDH5A1; type: biochemical; details: 5 μg/ml recombinant enzyme, 10 mM acetaldehyde, 20 μM Alda-341
T1 sequence (P51649 48-535): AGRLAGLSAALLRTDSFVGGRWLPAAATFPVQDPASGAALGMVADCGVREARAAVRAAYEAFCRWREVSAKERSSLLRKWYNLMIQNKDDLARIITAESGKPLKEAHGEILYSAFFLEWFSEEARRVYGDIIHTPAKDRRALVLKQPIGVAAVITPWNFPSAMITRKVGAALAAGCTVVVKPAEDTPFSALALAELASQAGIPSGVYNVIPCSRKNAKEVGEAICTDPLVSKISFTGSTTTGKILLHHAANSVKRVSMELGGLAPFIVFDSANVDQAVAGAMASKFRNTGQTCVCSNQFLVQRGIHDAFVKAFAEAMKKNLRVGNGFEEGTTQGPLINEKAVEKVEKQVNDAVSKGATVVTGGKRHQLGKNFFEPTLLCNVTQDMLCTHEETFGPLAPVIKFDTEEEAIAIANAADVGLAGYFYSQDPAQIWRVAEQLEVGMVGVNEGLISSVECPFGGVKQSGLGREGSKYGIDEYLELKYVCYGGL
Method: ALDH enzymatic assay: ALDH1A1, ALDH1A2, 2, 3A1, 3A2, 4A1, 5A1, 7A1 were measured as previously described using 5 μg/ml of recombinant protein (Chen, C. H., Cruz, L. A., and Mochly-Rosen, D. (2015) Pharmacological recruitment of aldehyde dehydrogenase 3A1 (ALDH3A1) to assist ALDH2 in acetaldehyde and ethanol metabolism in vivo. Proceedings of the National Academy of Sciences of the United States of America 112, 3074-3079). […] Assays were conducted in 50 mM NaPPi buffer (pH 7.4) in the presence of 2.5 mM NAD^+ and 10 mM substrate and measured in triplicate at 25° C. Dose response curve fits and EC50's were calculated using GraphPad Prism 7 software.

[5] = C57BL/6 female mice irradiated with 30 Gy, treated 8 weeks with Alda-341
Method: Pathology: A complete necropsy was performed by a certified veterinarian. Tissues from brain, heart, kidney, liver, esophagus, thymus, trachea, thyroid, lung, spleen, pancreas, trachea, stomach, pancreas, intestines, bladder, uterus and ovary were fixed on slides and scored for inflammation, necrosis, and apoptosis from a scale of 0 to 5. A complete blood count and blood chemistry panel was assessed by Stanford's Veterinary Services Center.

C=C(C)[C@H]1CC=C(C)CC1 [Alda-341, D-limonene]
more salispheres than untreated cells (Human salivary cells): about 30% | increase in total salisphere number compared to vehicle control [1]: ~15% | fewer early and late apoptotic cells compared to vehicle control [2]: about 60% | enzymatic activity of the lysate from Aldh3a1(−/−) mice ([3]; 400 μg/mL Aldh3a1(−/−) salivary sphere lysate): did not increase | increase of enzymatic activity of WT lysate ([3]; 400 μg/mL C57BL/6 WT salivary sphere lysate): approximately 30% | tumor growth and protection of tumors from radiation, SAS xenograft [4]: did not increase tumor growth or protect tumors from radiation | catalytic activity of ALDH5A1 (ALDH5A1): did not increase | complete blood count and blood chemistry panel [5]: normal complete blood count and blood chemistry panel
